US8889699B2, “5-fluorouracil derivative” (Delta-Fly Pharma, Inc., priority 2009, dated 2014)
Where two headings read alike, the source gives them in different places.

Key:
sarcoma 180 cells = experiment: Inhibition of intracellular phosphorylation of 5-FU in cancer cells; format: cell-based, mouse; details: for inhibition at 10 µM / inhibition at 100 µM: Mus musculus, Sarcoma-180, 0.5 h
Protocol: (§1) • (a) Test liquid preparation 1: Compound I-2 or I-10 of the present invention was dissolved to a concentration of 1 mM in cold physiological saline. The resulting product was further diluted 10-fold with physiological saline, yielding a 100-μM solution. • (b) Test liquid preparation 2: As an OPRT inhibitor, which inhibits the phosphorylation of 5-FU, citrazinic acid (Citra.A.) was dissolved to a concentration of 1 mM in cold physiological saline, and further diluted 10-fold with physiological saline, yielding a 100-μM solution. • (c) Preparation of cancer cell suspension: Ascites-type sarcoma 180 cells were preliminarily transplanted intraperitoneally into an ICR mouse and proliferated therein for use in the test as raw (intact) cells. The proliferated cells were isolated and then washed with physiological saline. […] Immediately after the completion of the reaction, 4 mL of a cold Hanks solution was added to the reaction solution, and the cells were washed and separated by centrifugation. After this procedure was repeated twice, 2 mL of a cold 5% trichloroacetic acid (TCA) solution was added to the cell pellet to disrupt the cells, and 5-FU and its nucleotide metabolites were extracted. Subsequently, a portion of the nucleic acid extract was applied to a silica gel 60F254 plate and developed with a mixed liquid comprising chloroform-methanol-acetic acid (17:3:1) to isolate the nucleotide moiety. The radioactivity thereof was measured and the concentration of 5-FU phosphorylation was measured.
as §1, with “1: Compounds I-9, I-11, I-12, and I-13” for “1: Compound I-2 or I-10”, “invention were separately” for “invention was”, “saline. Each of the” for “saline. The”, “resulting products” for “resulting product”, “acid” for “acid (Citra.A.)”

[1] = system: human gastric cancer strain (SC-2); details: 14 days, day 15; for Average weight change (%) / Tumor proliferation inhibition ratio (%): Test Example 3; for BWC (% initial) / IR (%): Test Example 6
Protocol: The resulting product was stirred with a stirrer at room temperature for about 10 minutes. […] Thereafter, ultrasonic treatment was performed under ice cooling for about 5 minutes, thereby obtaining a BOF-A2 drug liquid to be used at a dose of 14 mg/kg/day, 21 mg/kg/day, or 28 mg/kg/day. • (f) Experiment: The human gastric cancer strain (SC-2) was subcutaneously transplanted into the back of a BALB/cA-nu mouse and preliminarily proliferated therein. The proliferated strain was extracted, cut into about 2 mm square pieces with scissors in physiological saline, and subcutaneously inoculated to the right axillary region of mice of the same strain, 5 to 6 weeks of age, using a transplantation needle. […] Then, drug administration was initiated from the next day. Each of the test liquids shown in (a) to (e) above was administered orally to the mice in each of the test drug groups using a sonde for oral administration at a dose of 0.1 ml per 10 g body weight once a day for 14 continuous days. In the same manner as the above, the cancer-bearing mice in the control group were subjected to oral administration of only 0.5% HPMC liquid for 14 continuous days.
The tumor volume of each mouse in each group before the initiation of the treatment, on day 3, day 5, day 8 (1 week after), day 11, and day 15 (2 weeks after), i.e., after termination of the administration, was calculated using Equation 1 below, and respective relative tumor volume (RTV) relative to the tumor volume at the time of initiation of the treatment was calculated. In relation to the antitumor effect, the average value of the tumor proliferation inhibition ratio (IR; %) was calculated from the average tumor volume of each treatment group on day 15 (after termination of the treatment) relative to that of the control group on day 15, using Equation 2. […] Along therewith, a weight change ratio was calculated from the body weight of the mice at the time of the termination of the drug administration relative to the body weight of the mice at the time of the initiation of the administration, using Equation 3. […] Tumor volume(mm^3)=(major axis)×(minor axis)^2×½ Equation 1: Tumor proliferation inhibition ratio(IR, %)=[1−(average tumor volume of treatment group)/(average tumor volume of control group)]×100 Equation 2: Average weight change ratio(%)=[(average weight on Day 15)−(average weight on Day 1)]/(average weight on Day 1)×100 Equation 3: […]
The resulting product was stirred with a stirrer at room temperature for about 10 minutes. […] The proliferated strain was extracted, cut into about 2 mm square pieces with scissors in physiological saline, and subcutaneously inoculated to the right axillary region of mice of the same strain, 5 to 6 weeks of age, using a transplantation needle. […] Then, drug administration was initiated from the next day. Each of the test liquids shown in (a) to (c) above was administered orally to the mice in each of the test drug groups using a sonde for oral administration at a dose of 0.1 ml per 10 g body weight once a day for 14 continuous days. In the same manner as the above, the cancer-bearing mice in the control group were subjected to oral administration of only 0.5% HPMC liquid for 14 continuous days.
The tumor volume of each mouse in each group before the initiation of the treatment, on day 3, day 5, day 8 (1 week after), day 11, and day 15 (2 weeks after), i.e., after termination of the administration, was calculated using Equation 1 below, and respective relative tumor volume (RTV) relative to the tumor volume at the time of initiation of the treatment was calculated. In relation to the antitumor effect, the average value of the tumor proliferation inhibition ratio (IR; %) was calculated from the average tumor volume of each treatment group on day 15 (after termination of the treatment) relative to that of the control group on day 15, using Equation 2.

[2] = Conc. 10 μM, 30 min. Incubation, 5-FU 2 μM, Table 6
[3] = Conc. 10 μM, 30 min, Table 3 run with control 60.93
[4] = Conc. 10 μM, 30 min, Table 3 run with control 63.32
[5] = Conc. 100 μM, 30 min. Incubation, 5-FU 2 μM, Table 6
[6] = Conc. 100 μM, 30 min, Table 3 run with control 60.93
[7] = Conc. 100 μM, 30 min, Table 3 run with control 63.32
[8] = Conc. 10 μM, 30 min. Incubation, 5-FU 2 μM, Table 6, read-out: Inhibition (%) of phosphorylation of 5-FU
[9] = Conc. 10 μM, 30 min, Table 3 run with control 60.93, read-out: % Inhibition of 5-FU phosphorylation
[10] = Conc. 10 μM, 30 min, Table 3 run with control 63.32, read-out: % Inhibition of 5-FU phosphorylation
[11] = Conc. 100 μM, 30 min. Incubation, 5-FU 2 μM, Table 6, read-out: Inhibition (%) of phosphorylation of 5-FU
[12] = Conc. 100 μM, 30 min, Table 3 run with control 60.93, read-out: % Inhibition of 5-FU phosphorylation
[13] = Conc. 100 μM, 30 min, Table 3 run with control 63.32, read-out: % Inhibition of 5-FU phosphorylation
[14] = concentration of 100 μM, reaction for 30 minutes, read-out: percent inhibition of intracellular phosphorylation of 5-FU
[15] = concentration of 10 μM, reaction for 30 minutes, read-out: percent inhibition of intracellular phosphorylation of 5-FU

SMILES | RNA Fraction (sarcoma 180 cells; [2]) [pmol/1 × 10^7 cells] | F-nucleotides (sarcoma 180 cells; [3]) [pmol/1 × 10^7 cells] | F-nucleotides (sarcoma 180 cells; [4]) [pmol/1 × 10^7 cells] | RNA Fraction (sarcoma 180 cells; [5]) [pmol/1 × 10^7 cells] | F-nucleotides (sarcoma 180 cells; [6]) [pmol/1 × 10^7 cells] | F-nucleotides (sarcoma 180 cells; [7]) [pmol/1 × 10^7 cells] | inhibition at 10 µM (sarcoma 180 cells; [8]) [%] | inhibition at 10 µM (sarcoma 180 cells; [9]) [%] | inhibition at 10 µM (sarcoma 180 cells; [10]) [%] | inhibition at 100 µM (sarcoma 180 cells; [11]) [%] | inhibition at 100 µM (sarcoma 180 cells; [12]) [%] | inhibition at 100 µM (sarcoma 180 cells; [13]) [%] | inhibition at 100 µM (sarcoma 180 cells; [14]) [%] | inhibition at 10 µM (sarcoma 180 cells; [15]) [%] | other results
O=C(O)c1cc(O)nc(O)c1 [Citra. A., citrazinic acid, reference compound] | 62.19 | 55.78 | 62.19 | 60.13 | 51.72 | 60.13 | 1.8 | 8.5 | 1.8 | 5 | 15.1 | 5.1 | 5 to 15 |  | 
CCOCn1cc(F)c(=O)n(C(=O)c2cccc(C(=O)Oc3cc(OC(=O)c4cc(O)nc(O)c4)c(Cl)cn3)c2)c1=O [Compound I-2, 3-{3-[4-(2,6-dihydroxyisonicotinoyloxy)-5-chloro-2-pyridyloxycarbonyl]benzoyl}-1-ethoxymethyl-5-fluorouracil] |  | 47.26 |  |  | 28.88 |  |  | 22.4 |  |  | 52.6 |  | 50 to 60 | 20 to 30 | Average weight change (%) ([1]; 15.0 mg/kg/day oral): −1.13%; Tumor proliferation inhibition ratio (%) ([1]; 15.0 mg/kg/day oral): 41.1%; Average weight change (%) ([1]; 22.5 mg/kg/day oral): −4.18%; Tumor proliferation inhibition ratio (%) ([1]; 22.5 mg/kg/day oral): 56.0%; Average weight change (%) ([1]; 30.0 mg/kg/day oral): 1.76%; Tumor proliferation inhibition ratio (%) ([1]; 30.0 mg/kg/day oral): 67.9%
CCOCn1cc(F)c(=O)n(C(=O)c2cccc(C(=O)Oc3cc(OC(=O)c4cc(OC(=O)C5CCCC5)nc(OC(=O)C5CCCC5)c4)c(Cl)cn3)c2)c1=O [Compound I-9, 3-{3-[4-(2,6-dicyclopentanecarbonyloxyisonicotinoyloxy)-5-chloro-2-pyridyloxycarbonyl]benzoyl}-1-ethoxymethyl-5-fluorouracil] | 27.42 |  |  | 23.61 |  |  | 56.7 |  |  | 62.7 |  |  | 56 to 63 | 35 to 57 | BWC (% initial) ([1]; 49.5 mg/kg oral): +4.67 % initial; IR (%) ([1]; 49.5 mg/kg oral, equivalent to 12.5 mg/kg of S-1): 29.5%
CCOCn1cc(F)c(=O)n(C(=O)c2cccc(C(=O)Oc3cc(OC(=O)c4cc(OC(C)=O)nc(OC(C)=O)c4)c(Cl)cn3)c2)c1=O [Compound I-10, 3-{3-[4-(2,6-diacetyloxyisonicotinoyloxy)-5-chloro-2-pyridyloxycarbonyl]benzoyl}-1-ethoxymethyl-5-fluorouracil] |  |  | 40.71 |  |  | 27.62 |  |  | 35.7 |  |  | 56.4 | 50 to 60 | 20 to 30 | Average weight change (%) ([1]; 25.7 mg/kg/day oral): 1.97%; Tumor proliferation inhibition ratio (%) ([1]; 25.7 mg/kg/day oral): 31.9%; Average weight change (%) ([1]; 34.2 mg/kg/day oral): −0.05%; Tumor proliferation inhibition ratio (%) ([1]; 34.2 mg/kg/day oral): 51.0%; Average weight change (%) ([1]; 42.8 mg/kg/day oral): −4.31%; Tumor proliferation inhibition ratio (%) ([1]; 42.8 mg/kg/day oral): 57.7%
CCOCn1cc(F)c(=O)n(C(=O)c2cccc(C(=O)Oc3cc(OC(=O)c4cc(OC(=O)CC)nc(OC(=O)CC)c4)c(Cl)cn3)c2)c1=O [Compound I-11, 3-{3-[4-(2,6-dipropionyloxyisonicotinoyloxy)-5-chloro-2-pyridyloxycarbonyl]benzoyl}-1-ethoxymethyl-5-fluorouracil] | 40.71 |  |  | 27.62 |  |  | 35.7 |  |  | 56.4 |  |  | 56 to 63 | 35 to 57 | BWC (% initial) ([1]; 26.7 mg/kg oral): +1.68 % initial; IR (%) ([1]; 26.7 mg/kg oral, equivalent to 7.5 mg/kg of S-1): 17.0%; BWC (% initial) ([1]; 35.6 mg/kg oral): +1.82 % initial; IR (%) ([1]; 35.6 mg/kg oral, equivalent to 10 mg/kg of S-1): 32.0%; BWC (% initial) ([1]; 44.5 mg/kg oral): −3.94 % initial; IR (%) ([1]; 44.5 mg/kg oral, equivalent to 12.5 mg/kg of S-1): 47.3%
